Experimental data reported in US20160089464A1, “MALODOR REDUCTION COMPOSITIONS” (The Procter & Gamble Company, priority 2014, published 2016).

Test: Comment Code material properties: vapor pressure, ClogP, probability of ingredient color instability, odor detection threshold, melamine formaldehyde PMC headspace response ratio and leakage, liquid dish neat product liquid-air partition coefficient
Type: physicochemical
[1] = Table 1 materials, each letter of the code is one property class (vapor pressure, ClogP, color instability, odor detection threshold, PMC headspace ratio, PMC leakage, liquid dish liquid-air partition coefficient)
[2] = cell strings several class symbols together, each letter is one property class of L1
[3] = letter codes A-L: vapor pressure, ClogP, probability of ingredient color instability, odor detection threshold, PMC headspace response ratio, PMC leakage, liquid dish liquid-air partition coefficient, Table 1 materials with at least one MORV from 1 to 5

Compound	Comment Code [1]	Comment Code [2]	Comment Code [3]
CCCCCCCCC=CC=O [Material 828]	ADHJK		
C=C[C@](C)(O)CCC=C(C)C [Material 888]		BCEFGIJK	
CCCCCCCCCC=O [Material 584]	ADHKL		
CCCCCCCCCCC=CC=O [Material 930]	BDFHJK		
CC1=CC2C(=C(C)CCCC2(C)C)CC1 (stereo not drawn) [Material 625]	DEFHJKL		
O=C1CCC2(CCCCC2)O1 [Material 1039]		BCGIKL	
CNC(=O)C(C)(C(C)C)C(C)C [Material 846]		ACEFGIJK	
CCC(=O)OC1CC2C3C=CCC3C1C2(C)C (stereo not drawn) [Material 343]		DEFHJK	
COc1cc(C=O)ccc1OC(=O)C(C)C [Material 1111]	CHJ		
CC/C=C\CCOC(=O)OC [Material 163]		ACEFGKL	
C=C(C)C1CCC(C)C(O)C1 (stereo not drawn) [Material 897]	BCEFHIJKL		
O=C1CCc2ccccc2O1 [Material 442]		BCGIKL	
CC(=O)OC1CC2CCC1(C)C2(C)C (stereo not drawn) [Material 604]	ADEFHIJKL		
CC(C)c1cccc(C(C)CC=O)c1 (stereo not drawn) [Material 914]	BDHJK		
CC(C)(C)C1CCCCC1O (stereo not drawn) [Material 1122]		ACGIJKL	
C=CCCCCCCCCC=O [Material 871]	ADHJK		
C=C(C)C1CC=C(COC(C)=O)CC1 (stereo not drawn) [Material 947]	DFHJK		
CC1=CCC(C23CCCC(C)(C2)OC3)C1(C)C (stereo not drawn) [Material 570]	DEFHJK	DEFHJK	
CC(=O)OC1CC2C3C=CCC3C1C2(C)C (stereo not drawn) [Material 360]		DEFHJK	
CC(O)CCC1C(C)CCCC1(C)C (stereo not drawn) [Material 1052]		BDEFHIJK	
CCC=C1OC(=O)c2ccccc21 [Material 805]	CEFHK		
COC(=O)C1(C)CCC(C)CC1 (stereo not drawn) [Material 477]		ADEFHIJKL	
C=CCOC(=O)COCCC(C)C [Material 748]	BCEFGJK		
C=C1C(O)CC2CC1C2(C)C (stereo not drawn) [Material 974]	BCEFGIJKL		
CC1CC(C)(c2ccccc2)CO1 (stereo not drawn) [Material 1006]	BDEFHJK		
CC1=CC(=O)CC(C)C12CCC(=C(C)C)C2 (stereo not drawn) [Material 610]	DHJK		
COc1ccc(C=O)c(OC)c1OC [Material 733]	BCGI		
Cc1cc2c(cc1C#N)C(C)(C)C(C)C(C)C2(C)C (stereo not drawn) [Material 1142]		DHJ	DHJ
CC1=CC(C)C2(CCCC(C)(C)C2=O)CC1 (stereo not drawn) [Material 1022]	DHIJK	DHIJK	
CC(=O)OC(C)(C)C1CCC(C)CC1 (stereo not drawn) [Material 447]		BDEFHIJKL	

The remaining lines, values ahead:

Comment Code [1]	Comment Code [2]	Comment Code [3]	Compound
	CEFHIK		CCc1ccc(OC)c(O)c1 [Material 797]
	ACEFHKL		CCC/C=C\CCOC(C)=O [Material 882]
DFHJK			CCCCCC1C(=O)CCC1CC(=O)OC (stereo not drawn) [Material 1083]
		CEFGJ	COc1cc(CCC(C)=O)ccc1O [Material 1146]
ACEFHKL			C=CC/C=C/CCC(=O)OC [Material 668]
DEFHJ			CCCCCC(=Cc1ccccc1)C(OCC)OCC [Material 723]
DHJK			CC(C)Cc1ccc(CC(C)C=O)cc1 (stereo not drawn) [Material 1033]
DEFHJK			CCCCCC(=O)Oc1ccc(C)cc1 [Material 939]
	BDFHK		CC(C)c1ccc(CC=O)cc1 [Material 977]
DEFHJ			CCCCCC(=Cc1ccccc1)COC(C)=O [Material 722]
	BDEFHJKL		CC/C=C\CCOC(=O)CCCC [Material 535]
	BCEFHIK		COc1ccc(C(C)=O)cc1 [Material 761]
	DEFHJK		CCCCCOC(=O)c1ccccc1 [Material 672]
	BCFHIJKL		CCCCCC1=C(C)CCC1=O [Material 438]
	BDEFHJKL		CCCCCCOC(=O)C(C)CC (stereo not drawn) [Material 273]
